In brackets after ≈: the same amount, converted by molar mass.
Legend:
Format in all cases: cell-based
S. aureus MP-12 = experiment: Broth dilution MIC determination (CLSI), S. aureus MP-12; conditions: Staphylococcus aureus, MP12; strain MP-12, broth dilution
E. coli MP-4 = experiment: Broth dilution MIC determination (CLSI), E. coli MP-4; conditions: Escherichia coli, MP4; strain MP-4, broth dilution; read-out: MIC E. coli MP-4
K. pneumoniae MP-546 = experiment: Broth dilution MIC determination (CLSI), K. pneumoniae MP-546; conditions: Klebsiella pneumoniae, MP546; strain MP-546, broth dilution
P. aeruginosa MP-3 = experiment: Broth dilution MIC determination (CLSI), P. aeruginosa MP-3; conditions: Pseudomonas aeruginosa, MP3; strain MP-3, broth dilution
A. baumannii MP-15 = experiment: Broth dilution MIC determination (CLSI), A. baumannii MP-15; conditions: Acinetobacter baumannii, MP15; strain MP-15, broth dilution; read-out: MIC A. baumanii MP-15

SMILES | MIC (S. aureus MP-12) [µg/mL] | MIC (E. coli MP-4) [µg/mL] | MIC (K. pneumoniae MP-546) [µg/mL] | MIC (P. aeruginosa MP-3) [µg/mL] | MIC (A. baumannii MP-15) [µg/mL]
CO[C@]1(C)C[C@@H](C)CN(CC(C)C)[C@H](C2CN(CC(C)C)C2)COC(=O)C(C)(C)C(=O)[C@H](C)[C@H]1O[C@@H]1O[C@H](C)C[C@H](N(C)C)[C@H]1O [Compound 21, (3R,6R,8R,9R,10R)-9-(((2S,3R,4S,6R)-4-(dimethylamino)-3-hydroxy-6-methyltetrahydro-2H-pyran-2-yl)oxy)-4-isobutyl-3-(1-isobutylazetidin-3-yl)-8-methoxy-6,8,10,12,12-pentamethyl-1-oxa-4-azacyclotridecane-11,13-dione] | > 32 | > 32 | > 32 | > 32 | > 32
CO[C@]1(C)C[C@@H](C)CN(C)[C@@H]([C@@H]2CCCN(C)C2)COC(=O)C(C)(C)C(=O)[C@H](C)[C@H]1O[C@@H]1O[C@H](C)C[C@H](N(C)C)[C@H]1O [Compound 23, (3S,6R,8R,9R,10R)-9-(((2S,3R,4S,6R)-4-(dimethylamino)-3-hydroxy-6-methyltetrahydro-2H-pyran-2-yl)oxy)-8-methoxy-4,6,8,10,12,12-hexamethyl-3-((R)-1-methylpiperidin-3-yl)-1-oxa-4-azacyclotridecane-11,13-dione] | > 32 | 4 to 32 (≈ 6.69 to 53.5 µM) | 4 to 32 (≈ 6.69 to 53.5 µM) | > 32 | > 32
CN[C@H]1CC[C@H]([C@H]2COC(=O)C(C)(C)C(=O)[C@H](C)[C@@H](O[C@@H]3O[C@H](C)C[C@H](N(C)C)[C@H]3O)[C@](C)(OC)C[C@@H](C)CN2C)CC1 [Compound 26, (3S,6R,8R,9R,10R)-9-(((2S,3R,4S,6R)-4-(dimethylamino)-3-hydroxy-6-methyltetrahydro-2H-pyran-2-yl)oxy)-8-methoxy-4,6,8,10,12,12-hexamethyl-3-((1r,4S)-4-(methylamino)cyclohexyl)-1-oxa-4-azacyclotridecane-11,13-dione] | > 32 | 4 to 32 (≈ 6.54 to 52.3 µM) | > 32 | > 32 | > 32
CO[C@]1(C)C[C@@H](C)CN(CC(C)C)[C@H](C2CN(C(=O)CN(C)C)C2)COC(=O)C(C)(C)C(=O)[C@H](C)[C@H]1O[C@@H]1O[C@H](C)C[C@H](N(C)C)[C@H]1O [Compound 27, (3R,6R,8R,9R,10R)-9-(((2S,3R,4S,6R)-4-(dimethylamino)-3-hydroxy-6-methyltetrahydro-2H-pyran-2-yl)oxy)-3-(1-(dimethylglycyl)azetidin-3-yl)-4-isobutyl-8-methoxy-6,8,10,12,12-pentamethyl-1-oxa-4-azacyclotridecane-11,13-dione] | > 32 | > 32 | > 32 | > 32 | > 32
CO[C@]1(C)C[C@@H](C)CN(C)[C@H](C2CN(C(=O)CN(C)C)C2)COC(=O)C(C)(C)C(=O)[C@H](C)[C@H]1O[C@@H]1O[C@H](C)C[C@H](N(C)C)[C@H]1O [Compound 28, (3R,6R,8R,9R,10R)-9-(((2S,3R,4S,6R)-4-(dimethylamino)-3-hydroxy-6-methyltetrahydro-2H-pyran-2-yl)oxy)-3-(1-(dimethylglycyl)azetidin-3-yl)-8-methoxy-4,6,8,10,12,12-hexamethyl-1-oxa-4-azacyclotridecane-11,13-dione] | 4 to 32 (≈ 6.24 to 49.9 µM) | < 4 | < 4 | > 32 | > 32
CCCN1CC([C@H]2COC(=O)C(C)(C)C(=O)[C@H](C)[C@@H](O[C@@H]3O[C@H](C)C[C@H](N(C)C)[C@H]3O)[C@](C)(OC)C[C@@H](C)CN2C)C1 [Compound 29, (3S,6R,8R,9R,10R)-9-(((2S,3R,4S,6R)-4-(dimethylamino)-3-hydroxy-6-methyltetrahydro-2H-pyran-2-yl)oxy)-8-methoxy-4,6,8,10,12,12-hexamethyl-3-(1-propylazetidin-3-yl)-1-oxa-4-azacyclotridecane-11,13-dione] | > 32 | < 4 | 4 to 32 (≈ 6.69 to 53.5 µM) | > 32 | > 32
CO[C@]1(C)C[C@@H](C)CN(C)[C@H](c2ccc(Br)cc2)COC(=O)C(C)(C)C(=O)[C@H](C)[C@H]1O[C@@H]1O[C@H](C)C[C@H](N(C)C)[C@H]1O [Compound 33, (3R,6R,8R,9R,10R)-3-(4-bromophenyl)-9-(((2S,3R,4S,6R)-4-(dimethylamino)-3-hydroxy-6-methyltetrahydro-2H-pyran-2-yl)oxy)-8-methoxy-4,6,8,10,12,12-hexamethyl-1-oxa-4-azacyclotridecane-11,13-dione] | > 32 | 4 to 32 (≈ 6.1 to 48.8 µM) | > 32 | > 32 | > 32
CO[C@]1(C)C[C@@H](C)CN(C)[C@@H]([C@H]2CCCN(C(=O)CN(C)C)C2)COC(=O)C(C)(C)C(=O)[C@H](C)[C@H]1O[C@@H]1O[C@H](C)C[C@H](N(C)C)[C@H]1O [Compound 34, (3S,6R,8R,9R,10R)-9-(((2S,3R,4S,6R)-4-(dimethylamino)-3-hydroxy-6-methyltetrahydro-2H-pyran-2-yl)oxy)-3-((S)-1-(dimethylglycyl)piperidin-3-yl)-8-methoxy-4,6,8,10,12,12-hexamethyl-1-oxa-4-azacyclotridecane-11,13-dione] | > 32 | 4 to 32 (≈ 5.98 to 47.8 µM) | > 32 | > 32 | > 32
CO[C@]1(C)C[C@@H](C)CN(C)[C@H](C2CN(C(C)C)C2)COC(=O)C(C)(C)C(=O)[C@H](C)[C@H]1O[C@@H]1O[C@H](C)C[C@H](N(C)C)[C@H]1O [Compound 35, (3R,6R,8R,9R,10R)-9-(((2S,3R,4S,6R)-4-(dimethylamino)-3-hydroxy-6-methyltetrahydro-2H-pyran-2-yl)oxy)-3-(1-isopropylazetidin-3-yl)-8-methoxy-4,6,8,10,12,12-hexamethyl-1-oxa-4-azacyclotridecane-11,13-dione] | > 32 | < 4 | 4 to 32 (≈ 6.69 to 53.5 µM) | > 32 | > 32
CO[C@]1(C)C[C@@H](C)CN(C)[C@H](C2CN(CC(=O)NC(C)C)C2)COC(=O)C(C)(C)C(=O)[C@H](C)[C@H]1O[C@@H]1O[C@H](C)C[C@H](N(C)C)[C@H]1O [Compound 36, 2-(3-((3R,6R,8R,9R,10R)-9-(((2S,3R,4S,6R)-4-(dimethylamino)-3-hydroxy-6-methyltetrahydro-2H-pyran-2-yl)oxy)-8-methoxy-4,6,8,10,12,12-hexamethyl-11,13-dioxo-1-oxa-4-azacyclotridecan-3-yl)azetidin-1-yl)-N-isopropylacetamide] | > 32 | 4 to 32 (≈ 6.11 to 48.9 µM) | 4 to 32 (≈ 6.11 to 48.9 µM) | > 32 | > 32
CCN1C[C@H](C)C[C@@](C)(OC)[C@H](O[C@@H]2O[C@H](C)C[C@H](N(C)C)[C@H]2O)[C@@H](C)C(=O)C(C)(C)C(=O)OC[C@H]1C1CN(C(=O)CN(C)C)C1 [Compound 38, (3R,6R,8R,9R,10R)-9-(((2S,3R,4S,6R)-4-(dimethylamino)-3-hydroxy-6-methyltetrahydro-2H-pyran-2-yl)oxy)-3-(1-(dimethylglycyl)azetidin-3-yl)-4-ethyl-8-methoxy-6,8,10,12,12-pentamethyl-1-oxa-4-azacyclotridecane-11,13-dione] | 4 to 32 (≈ 6.11 to 48.9 µM) | < 4 | 4 to 32 (≈ 6.11 to 48.9 µM) | > 32 | > 32
CO[C@]1(C)C[C@@H](C)CN(C)[C@H]([C@H]2CCCN(CC(C)C)C2)COC(=O)C(C)(C)C(=O)[C@H](C)[C@H]1O[C@@H]1O[C@H](C)C[C@H](N(C)C)[C@H]1O [Compound 39, (3R,6R,8R,9R,10R)-9-(((2S,3R,4S,6R)-4-(Dimethylamino)-3-hydroxy-6-methyltetrahydro-2H-pyran-2-yl)oxy)-3-((S)-1-isobutylpiperidin-3-yl)-8-methoxy-4,6,8,10,12,12-hexamethyl-1-oxa-4-azacyclotridecane-11,13-dione] | 4 to 32 (≈ 6.25 to 50 µM) | 4 to 32 (≈ 6.25 to 50 µM) | 4 to 32 (≈ 6.25 to 50 µM) | > 32 | > 32
CO[C@]1(C)C[C@@H](C)CN(C)[C@@H]([C@H]2CCNC2)COC(=O)C(C)(C)C(=O)[C@H](C)[C@H]1O[C@@H]1O[C@H](C)C[C@H](N(C)C)[C@H]1O [Compound 40, (3S,6R,8R,9R,10R)-9-(((2S,3R,4S,6R)-4-(Dimethylamino)-3-hydroxy-6-methyltetrahydro-2H-pyran-2-yl)oxy)-8-methoxy-4,6,8,10,12,12-hexamethyl-3-((S)-pyrrolidin-3-yl)-1-oxa-4-azacyclotridecane-11,13-dione] | 4 to 32 (≈ 7.02 to 56.2 µM) | < 4 | < 4 | > 32 | > 32
CO[C@]1(C)C[C@@H](C)CN(C)[C@H](c2ccccc2)COC(=O)C(C)(C)C(=O)[C@H](C)[C@H]1O[C@@H]1O[C@H](C)C[C@H](N(C)C)[C@H]1O [Compound 42, (3R,6R,8R,9R,10R)-9-(((2S,3R,4S,6R)-4-(Dimethylamino)-3-hydroxy-6-methyltetrahydro-2H-pyran-2-yl)oxy)-8-methoxy-4,6,8,10,12,12-hexamethyl-3-phenyl-1-oxa-4-azacyclotridecane-11,13-dione] | > 32 | 4 to 32 (≈ 6.94 to 55.5 µM) | > 32 | > 32 | > 32
CO[C@]1(C)C[C@@H](C)CN(C)[C@H](C2CCN(C)CC2)COC(=O)C(C)(C)C(=O)[C@H](C)[C@H]1O[C@@H]1O[C@H](C)C[C@H](N(C)C)[C@H]1O [Compound 43, (3R,6R,8R,9R,10R)-9-(((2S,3R,4S,6R)-4-(dimethylamino)-3-hydroxy-6-methyltetrahydro-2H-pyran-2-yl)oxy)-8-methoxy-4,6,8,10,12,12-hexamethyl-3-(1-methylpiperidin-4-yl)-1-oxa-4-azacyclotridecane-11,13-dione] | 4 to 32 (≈ 6.69 to 53.5 µM) | < 4 | < 4 | > 32 | > 32

Source: patent US20220177508A1, “C10-Cyclic Substituted 13-Membered Macrolides and Uses Thereof” (Zikani Therapeutics, Inc., priority 2018, published 2022)
